This is an account of results in US8937048B2, “Anti-angiogenic compounds” (Covx Technologies Ireland, Limited, priority 2008, dated 2015).

Where a SMILES comes first, the peptide text is derived from it. Bridges are numbered along the chain shown (N, C = ends).

The assay deals with T1, recombinant human VEGF165 (Homo sapiens, UniProt P15692).
T1 sequence (P15692 27-191 isoform P15692-4): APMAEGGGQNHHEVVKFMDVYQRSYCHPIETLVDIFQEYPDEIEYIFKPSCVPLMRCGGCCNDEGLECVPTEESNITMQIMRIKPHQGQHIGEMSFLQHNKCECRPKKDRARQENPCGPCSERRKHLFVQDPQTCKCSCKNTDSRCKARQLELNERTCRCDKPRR
Nature of the assay: VEGF peptide binding assay (competition ELISA, VEGF165 binding to coated VEGFR2/Fc). An outline of the steps: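 VEGFR2/Fc was coated, and peptides (0.128–10,000 nM, N-acetyl, C-amide) were preincubated with 25 ng/ml human VEGF165 and added for 1 h at RT. Bound VEGF was detected with biotinylated anti-VEGF, streptavidin-HRP and TMB at OD450. IC50 came from sigmoid dose-response fits of OD450 versus concentration.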
For orientation: In an ELISA, binding on a coated surface is turned into a signal by an enzyme label.
Regarding `CC[C@H](C)[C@@H]1NC(=O)[C@H](CC(=O)O)NC(=O)[C@@H](NC(=O)[C@H](CC(N)=O)NC(=O)[C@@H]2CCCN2C(=O)[C@H](CCC(=O)O)NC(=O)[C@@H](NC(C)=O)C(C)C)CSSC[C@@H](C(=O)N[C@@H](Cc2ccccc2)C(=O)N[C@@H](CCC(=O)O)C(=O)N[C@@H](CCCNC(=N)N)C(=O)N[C@@H](CC(C)C)C(=O)N[C@@H](CCSC)C(=O)N[C@@H](CCCNC(=N)N)C(=O)N[C@@H](CCC(=O)O)C(=O)N[C@@H](CC(C)C)C(N)=O)NC(=O)[C@H](CCC(=O)O)NC(=O)[C@H](Cc2c[nH]c3ccccc23)NC(=O)[C@H](C(C)C)NC(=O)[C@H](Cc2c[nH]c3ccccc23)NC(=O)[C@H](CCSC)NC(=O)[C@H](C(C)C)NC(=O)[C@H](Cc2c[nH]cn2)NC1=O` [Compound 63, VEPNCDIHVMWVWECFERLMREL] (Ac-VEPNCDIHVMWVWECFERLMREL-NH2; disulfide 5-15 (inferred)), the IC50 was found to be 24 nM.

In the case of `CC[C@H](C)[C@@H]1NC(=O)[C@H](CC(=O)O)NC(=O)[C@@H](NC(=O)[C@H](CC(N)=O)NC(=O)[C@@H]2CCCN2C(=O)[C@H](CCC(=O)O)NC(=O)[C@@H](NC(C)=O)C(C)C)CSSC[C@@H](C(=O)N[C@@H](Cc2ccccc2)C(=O)N[C@@H](CCC(=O)O)C(=O)N[C@@H](CCCNC(=N)N)C(=O)N[C@@H](CC(C)C)C(N)=O)NC(=O)[C@H](CCC(=O)O)NC(=O)[C@H](Cc2c[nH]c3ccccc23)NC(=O)[C@H](C(C)C)NC(=O)[C@H](Cc2c[nH]c3ccccc23)NC(=O)[C@H](CCSC)NC(=O)[C@H](C(C)C)NC(=O)[C@H](Cc2c[nH]cn2)NC1=O` [Compound 64, V-E-P-N-C-D-I-H-V-M-W-V-W-E-C-F-E-R-L-] (Ac-VEPNCDIHVMWVWECFERL-NH2; disulfide 5-15 (inferred)), the IC50 worked out at 24 nM.

Regarding `CC[C@H](C)[C@@H]1NC(=O)[C@H](CC(=O)O)NC(=O)[C@@H](NC(=O)[C@H](CC(N)=O)NC(=O)[C@@H]2CCCN2C(=O)[C@H](CCC(=O)O)NC(=O)[C@@H](NC(C)=O)C(C)C)CSSC[C@@H](C(=O)N[C@@H](Cc2ccccc2)C(=O)N[C@@H](CCC(=O)O)C(=O)N[C@@H](CCCNC(=N)N)C(=O)N[C@@H](CC(C)C)C(=O)N[C@@H](CCSC)C(=O)N[C@@H](CCCCN)C(=O)N[C@@H](CCC(=O)O)C(=O)N[C@@H](CC(C)C)C(N)=O)NC(=O)[C@H](CCC(=O)O)NC(=O)[C@H](Cc2c[nH]c3ccccc23)NC(=O)[C@H](C(C)C)NC(=O)[C@H](Cc2c[nH]c3ccccc23)NC(=O)[C@H](CCSC)NC(=O)[C@H](C(C)C)NC(=O)[C@H](Cc2c[nH]cn2)NC1=O` [Compound 65, VEPNCDIHVMWVWECFERLMKEL] (Ac-VEPNCDIHVMWVWECFERLMKEL-NH2; disulfide 5-15 (inferred)), the IC50 is 18 nM.

Consider `CC[C@H](C)[C@@H]1NC(=O)[C@H](CC(=O)O)NC(=O)[C@@H](NC(=O)[C@H](CC(N)=O)NC(=O)[C@@H]2CCCN2C(=O)[C@H](CCC(=O)O)NC(=O)[C@@H](NC(C)=O)C(C)C)CSSC[C@@H](C(=O)N[C@@H](Cc2ccccc2)C(=O)N[C@@H](CCC(=O)O)C(=O)N[C@@H](CCCNC(=N)N)C(=O)N[C@@H](CC(C)C)C(=O)N[C@@H](Cc2ccc(O)cc2)C(=O)NCC(=O)N2CCC[C@H]2C(=O)N[C@@H](Cc2c[nH]c3ccccc23)C(N)=O)NC(=O)[C@H](CCC(=O)O)NC(=O)[C@H](Cc2c[nH]c3ccccc23)NC(=O)[C@H](C(C)C)NC(=O)[C@H](Cc2c[nH]c3ccccc23)NC(=O)[C@H](CCSC)NC(=O)[C@H](C(C)C)NC(=O)[C@H](Cc2c[nH]cn2)NC1=O` [Compound 66, VEPNCDIHVMWVWECFERLYGPW] (Ac-VEPNCDIHVMWVWECFERLYGPW-NH2; disulfide 5-15 (inferred)), for which the IC50 was found to be 18.7 nM.

As to `CC[C@H](C)[C@@H]1NC(=O)[C@H](CC(=O)O)NC(=O)[C@@H](NC(=O)[C@H](CC(N)=O)NC(=O)[C@@H]2CCCN2C(=O)[C@H](CCC(=O)O)NC(=O)[C@@H](NC(C)=O)C(C)C)CSSC[C@@H](C(=O)N[C@@H](Cc2ccccc2)C(=O)N[C@@H](CCC(=O)O)C(=O)N[C@@H](CCCNC(=N)N)C(=O)N[C@@H](CC(C)C)C(=O)N[C@@H](CC(C)C)C(=O)N[C@@H](CCCCN)C(N)=O)NC(=O)[C@H](CCC(=O)O)NC(=O)[C@H](Cc2c[nH]c3ccccc23)NC(=O)[C@H](C(C)C)NC(=O)[C@H](Cc2c[nH]c3ccccc23)NC(=O)[C@H](CCSC)NC(=O)[C@H](C(C)C)NC(=O)[C@H](Cc2c[nH]cn2)NC1=O` [Compound 67, VEPNCDIHVMWVWECFERLLK] (Ac-VEPNCDIHVMWVWECFERLLK-NH2; disulfide 5-15 (inferred)), the IC50 stood at 10.1 nM.

For `CC[C@H](C)[C@@H]1NC(=O)[C@H](CC(=O)O)NC(=O)[C@@H](NC(=O)[C@H](CC(N)=O)NC(=O)[C@@H]2CCCN2C(=O)[C@H](CCC(=O)O)NC(=O)[C@@H](NC(C)=O)C(C)C)CSSC[C@@H](C(=O)N[C@@H](Cc2ccccc2)C(=O)N[C@@H](CCC(=O)O)C(=O)N[C@@H](CCCNC(=N)N)C(=O)N[C@@H](CC(C)C)C(=O)N[C@@H](CC(C)C)C(=O)N[C@@H](CCCCNC(C)=O)C(N)=O)NC(=O)[C@H](CCC(=O)O)NC(=O)[C@H](Cc2c[nH]c3ccccc23)NC(=O)[C@H](C(C)C)NC(=O)[C@H](Cc2c[nH]c3ccccc23)NC(=O)[C@H](CCSC)NC(=O)[C@H](C(C)C)NC(=O)[C@H](Cc2c[nH]cn2)NC1=O` [Compound 68, VEPNCDIHVMWVWECFERLL-(Kac)] (Ac-VEPNCDIHVMWVWECFERLLK(Ac)-NH2; disulfide 5-15 (inferred)), the IC50 was determined as 10 nM.

On to `CC[C@H](C)[C@@H]1NC(=O)[C@H](CC(=O)O)NC(=O)[C@@H](NC(=O)[C@H](CC(N)=O)NC(=O)[C@@H]2CCCN2C(=O)[C@H](CCC(=O)O)NC(=O)[C@@H](NC(C)=O)C(C)C)CSSC[C@@H](C(=O)N[C@@H](Cc2ccccc2)C(=O)N[C@@H](CCC(=O)O)C(=O)N[C@@H](CCCNC(=N)N)C(=O)N[C@@H](CC(C)C)C(=O)N[C@@H](Cc2ccc(O)cc2)C(=O)NCC(=O)N[C@@H](CCC(=O)O)C(=O)N[C@@H](Cc2ccccc2)C(N)=O)NC(=O)[C@H](CCC(=O)O)NC(=O)[C@H](Cc2c[nH]c3ccccc23)NC(=O)[C@H](C(C)C)NC(=O)[C@H](Cc2c[nH]c3ccccc23)NC(=O)[C@H](CCSC)NC(=O)[C@H](C(C)C)NC(=O)[C@H](Cc2c[nH]cn2)NC1=O` [Compound 70, VEPNCDIHVMWVWECFERLYGEF] (Ac-VEPNCDIHVMWVWECFERLYGEF-NH2; disulfide 5-15 (inferred)), for which the IC50 came to 9.3 nM.

Consider `CC[C@H](C)[C@@H]1NC(=O)[C@H](CC(=O)O)NC(=O)[C@@H](NC(=O)[C@H](CC(N)=O)NC(=O)[C@@H]2CCCN2C(=O)[C@H](CCC(=O)O)NC(=O)[C@@H](NC(C)=O)C(C)C)CSSC[C@@H](C(=O)N[C@@H](Cc2ccccc2)C(=O)N[C@@H](CCC(=O)O)C(=O)N[C@@H](CCCNC(=N)N)C(=O)N[C@@H](CC(C)C)C(=O)N[C@@H](Cc2ccc(O)cc2)C(=O)NCC(=O)N[C@@H](CC(C)C)C(=O)N[C@@H](CO)C(N)=O)NC(=O)[C@H](CCC(=O)O)NC(=O)[C@H](Cc2c[nH]c3ccccc23)NC(=O)[C@H](C(C)C)NC(=O)[C@H](Cc2c[nH]c3ccccc23)NC(=O)[C@H](CCSC)NC(=O)[C@H](C(C)C)NC(=O)[C@H](Cc2c[nH]cn2)NC1=O` [Compound 71, VEPNCDIHVMWVWECFERLYGLS] (Ac-VEPNCDIHVMWVWECFERLYGLS-NH2; disulfide 5-15 (inferred)), for which the half-maximal inhibitory concentration (IC50) is 5.4 nM.

Take `CC[C@H](C)[C@@H]1NC(=O)[C@H](CC(=O)O)NC(=O)[C@@H](NC(=O)[C@H](CC(N)=O)NC(=O)[C@@H]2CCCN2C(=O)[C@H](CCC(=O)O)NC(=O)[C@@H](NC(C)=O)C(C)C)CSSC[C@@H](C(=O)N[C@@H](Cc2ccccc2)C(=O)N[C@@H](CCC(=O)O)C(=O)N[C@@H](CCCNC(=N)N)C(=O)N[C@@H](CC(C)C)C(=O)N[C@@H](Cc2ccc(O)cc2)C(=O)NCC(=O)N[C@@H](CC(C)C)C(N)=O)NC(=O)[C@H](CCC(=O)O)NC(=O)[C@H](Cc2c[nH]c3ccccc23)NC(=O)[C@H](C(C)C)NC(=O)[C@H](Cc2c[nH]c3ccccc23)NC(=O)[C@H](CCSC)NC(=O)[C@H](C(C)C)NC(=O)[C@H](Cc2c[nH]cn2)NC1=O` [Compound 72, VEPNCDIHVMWVWECFERLYGL] (Ac-VEPNCDIHVMWVWECFERLYGL-NH2; disulfide 5-15 (inferred)): the concentration for half-maximal inhibition (IC50) was 4.8 nM.

`CC[C@H](C)[C@@H]1NC(=O)[C@H](CC(=O)O)NC(=O)[C@@H](NC(=O)[C@H](CC(N)=O)NC(=O)[C@@H]2CCCN2C(=O)[C@H](CCC(=O)O)NC(=O)[C@@H](NC(C)=O)C(C)C)CSSC[C@@H](C(=O)N[C@@H](Cc2ccccc2)C(=O)N[C@@H](CCC(=O)O)C(=O)N[C@@H](CCCNC(=N)N)C(=O)N[C@@H](CC(C)C)C(=O)N[C@@H](Cc2ccc(O)cc2)C(=O)NCC(=O)N[C@H](C(=O)N[C@@H](CCC(N)=O)C(N)=O)C(C)C)NC(=O)[C@H](CCC(=O)O)NC(=O)[C@H](Cc2c[nH]c3ccccc23)NC(=O)[C@H](C(C)C)NC(=O)[C@H](Cc2c[nH]c3ccccc23)NC(=O)[C@H](CCSC)NC(=O)[C@H](C(C)C)NC(=O)[C@H](Cc2c[nH]cn2)NC1=O` [Compound 74, VEPNCDIHVMWVWECFERLYGVQ] (Ac-VEPNCDIHVMWVWECFERLYGVQ-NH2; disulfide 5-15 (inferred)): the 50% inhibitory concentration (IC50) was 4 nM.

A word on the IC50: it is the point on the concentration scale where inhibition reaches its midpoint.
